The target in one assay is T1, HLA-DRB1*04:01 (Homo sapiens, UniProt P01903+P01911, A100K/A169T/F76Y/I96L/K127E/L162R/M171V/N62H/P40V/Q125Y/R42H/S133A/S149N/S66Y/V115G/V209L/W38E).
T1 construct: EBV transformed homozygous cell lines were used as sources of MHC molecules; endogenous in cells; host or cells: EBV transformed homozygous cell lines
The experiment in a line: HLA class II peptide binding, inhibition of radiolabeled peptide binding to purified MHC.

Another assay concerns the target T2, HLA-DRB1*01:01 (Homo sapiens, UniProt P01903+P01911, A100R/D57E/F55L/F60I/F76Y/I96L/L162R/M171V/P40L/Q125E/R42F/V115G/Y59C).
T2 construct: EBV transformed homozygous cell lines were used as sources of MHC molecules; endogenous in cells; host or cells: EBV transformed homozygous cell lines
The assay is described as above.

Setting [1] is: citrullinated 15-mer (X), purified MHC, inhibition of radiolabeled peptide binding, dash = IC50 >40,000 nM, read-out: DRB1*04:01 binding capacity, Cit peptide (IC50 nM).
Setting [2] is: citrullinated 15-mer (X), purified MHC, inhibition of radiolabeled peptide binding, dash = IC50 >40,000 nM, read-out: DRB1*01:01 binding capacity, Cit peptide (IC50 nM).
[3] abbreviates: citrullinated 15-mer peptide (X = citrulline), purified HLA-DRB1*04:01, read-out: DRB1*04:01 binding capacity, Cit peptide (IC50 nM).
The mark [4] stands for this setting: citrullinated 15-mer peptide (X = citrulline), purified HLA-DRB1*01:01, read-out: DRB1*01:01 binding capacity, Cit peptide (IC50 nM).
The mark [5] stands for this setting: wild-type (unmodified Arg) 15-mer peptide, purified HLA-DRB1*04:01, read-out: DRB1*04:01 binding capacity, WT peptide (IC50 nM).
Setting [6] is: wild-type (unmodified Arg) 15-mer peptide, purified HLA-DRB1*01:01, read-out: DRB1*01:01 binding capacity, WT peptide (IC50 nM).
Where [7] appears, read: citrullinated peptide as listed (X at Cit position), read-out: DRB1*04:01 binding capacity Cit peptide (IC50 nM).
Where [8] appears, read: value of the wild-type (non-citrullinated) counterpart of the listed peptide, read-out: DRB1*04:01 binding capacity WT peptide (IC50 nM).
Setting [9] is: citrullinated peptide as listed (X at Cit position), read-out: DRB1*01:01 binding capacity Cit peptide (IC50 nM).
Where [10] appears, read: value of the wild-type (non-citrullinated) counterpart of the listed peptide, read-out: DRB1*01:01 binding capacity WT peptide (IC50 nM).

Like-named read-outs stand apart in the source and are kept apart here. Square brackets hold non-standard residues; d marks the D form. Ends that are not written are not given here. Peptide text beside a SMILES is read from it. Cit = NC(=O)NCCC[C@H](N)C(=O)O Some results are limits rather than exact numbers.

`CSCC[C@H](NC(=O)[C@H](CCC(=O)O)NC(=O)[C@@H](N)CCC(=O)O)C(=O)N[C@@H](CC(C)C)C(=O)N[C@@H](CCC(N)=O)C(=O)N[C@@H](CCCNC(N)=O)C(=O)N[C@@H](CCC(=O)O)C(=O)N[C@@H](CCC(=O)O)C(=O)N[C@@H](C)C(=O)N[C@@H](CCC(=O)O)C(=O)N[C@@H](CC(N)=O)C(=O)N[C@H](C(=O)N[C@@H](CC(C)C)C(=O)N[C@@H](CCC(N)=O)C(=O)N[C@@H](CO)C(=O)O)[C@@H](C)O` [EEMLQXEEAENTLQS] (H-EEMLQ[Cit]EEAENTLQS-OH): the IC50 (as a rule, the point on the concentration scale where inhibition reaches its midpoint) at HLA-DRB1*04:01 (setting [1]) worked out at 14000 nM; at HLA-DRB1*01:01 (setting [2]) it was 869 nM.
Consider `CSCC[C@H](NC(=O)[C@H](CCCNC(N)=O)NC(=O)[C@H](CCCNC(=N)N)NC(=O)[C@H](Cc1ccc(O)cc1)NC(=O)[C@H](CO)NC(=O)[C@H](CO)NC(=O)[C@H](CO)NC(=O)[C@H](CO)NC(=O)[C@@H](NC(=O)[C@H](CO)NC(=O)[C@H](CCCNC(=N)N)NC(=O)[C@@H](NC(=O)[C@H](CO)NC(=O)[C@@H](N)CCSC)[C@@H](C)O)C(C)C)C(=O)N[C@@H](Cc1ccccc1)C(=O)O` [MSTRSVSSSSYRXMF] (H-MSTRSVSSSSYR[Cit]MF-OH), for which the IC50 on HLA-DRB1*04:01 (setting [1]) was found to be 443 nM; at HLA-DRB1*01:01 (setting [2]), 672 nM.
On to `CSCC[C@H](N)C(=O)N[C@@H](C)C(=O)N[C@@H](CCCNC(N)=O)C(=O)N[C@@H](Cc1c[nH]cn1)C(=O)N[C@@H](CC(C)C)C(=O)N[C@@H](CCCNC(=N)N)C(=O)N[C@@H](CCC(=O)O)C(=O)N[C@@H](Cc1ccc(O)cc1)C(=O)N[C@@H](CCC(N)=O)C(=O)N[C@@H](CC(=O)O)C(=O)N[C@@H](CC(C)C)C(=O)N[C@@H](CC(C)C)C(=O)N[C@@H](CC(N)=O)C(=O)N[C@H](C(=O)N[C@@H](CCCCN)C(=O)O)C(C)C` [MAXHLREYQDLLNVK] (H-MA[Cit]HLREYQDLLNVK-OH), for which the 50% inhibitory concentration (IC50) was 4320 nM on HLA-DRB1*04:01 (setting [3]) and 494 nM at HLA-DRB1*01:01 (setting [4]).
The matching figures for `CSCC[C@H](NC(=O)[C@H](CCC(N)=O)NC(=O)[C@H](CCCNC(N)=O)NC(=O)[C@H](CCC(=O)O)NC(=O)[C@H](CC(C)C)NC(=O)[C@H](CO)NC(=O)[C@H](CCC(=O)O)NC(=O)[C@H](CC(N)=O)NC(=O)[C@@H](NC(=O)CNC(=O)[C@H](CCCCN)NC(=O)[C@H](CC(C)C)NC(=O)[C@H](C)NC(=O)[C@@H](N)CC(=O)O)[C@@H](C)O)C(=O)N[C@@H](CCCNC(=N)N)C(=O)O` [DALKGTNESLEXQMR] (H-DALKGTNESLE[Cit]QMR-OH): 16600 nM and over 40000 nM.
`CC[C@H](C)[C@H](NC(=O)[C@H](CCC(=O)O)NC(=O)[C@H](CCC(=O)O)NC(=O)[C@H](CCC(N)=O)NC(=O)[C@H](CC(C)C)NC(=O)[C@H](CO)NC(=O)[C@H](CCC(=O)O)NC(=O)[C@@H](NC(=O)[C@H](CCCCN)NC(=O)[C@H](CCCNC(N)=O)NC(=O)[C@@H](N)CCC(=O)O)C(C)C)C(=O)N[C@@H](C)C(=O)N[C@@H](Cc1ccccc1)C(=O)N[C@@H](CC(C)C)C(=O)N[C@@H](CCCCN)C(=O)O` [EXKVESLQEEIAFLK] (H-E[Cit]KVESLQEEIAFLK-OH): the IC50 was over 40000 nM on HLA-DRB1*04:01 (setting [1]) and 148 nM at HLA-DRB1*01:01 (setting [2]).
For the compound `CC(C)C[C@H](NC(=O)[C@@H](NC(=O)[C@H](CC(N)=O)NC(=O)[C@H](CCC(=O)O)NC(=O)[C@H](C)NC(=O)[C@H](CCC(=O)O)NC(=O)[C@H](CCC(=O)O)NC(=O)[C@@H](N)CCCNC(=N)N)[C@@H](C)O)C(=O)N[C@@H](CCC(N)=O)C(=O)N[C@@H](CO)C(=O)N[C@@H](Cc1ccccc1)C(=O)N[C@@H](CCCNC(N)=O)C(=O)N[C@@H](CCC(N)=O)C(=O)N[C@@H](CC(=O)O)C(=O)N[C@H](C(=O)O)C(C)C` [REEAENTLQSFXQDV] (H-REEAENTLQSF[Cit]QDV-OH), the values for the IC50 at HLA-DRB1*04:01 (setting [1]) and at HLA-DRB1*01:01 (setting [2]) were 11600 nM and 33300 nM, respectively.
As for ARGAQGPPGATGFPG [Collagen 886 WT], the half-inhibitory concentration (IC50) was over 40000 nM on HLA-DRB1*04:01 (setting [5]) and 32200 nM on HLA-DRB1*01:01 (setting [6]).
For LGPREKGPDPLQYMR [Collagen 1226 WT], the values for the IC50 at HLA-DRB1*04:01 (setting [5]) and at HLA-DRB1*01:01 (setting [6]) were over 40000 nM and 6720 nM, respectively.
In the same order, the values of GPSGKDGPKGARGDS [Collagen 921 WT] are over 40000 nM and over 40000 nM.
As for `CC(C)C[C@H](NC(=O)CNC(=O)[C@@H]1CCCN1C(=O)[C@H](Cc1ccccc1)NC(=O)CNC(=O)[C@H](CCCNC(N)=O)NC(=O)[C@H](CCC(=O)O)NC(=O)CNC(=O)[C@H](CCCNC(=N)N)NC(=O)[C@H](CCC(N)=O)NC(=O)CNC(=O)[C@@H]1CCCN1)C(=O)N1CCC[C@H]1C(=O)NCC(=O)N1CCC[C@H]1C(=O)O` [PGQRGEXGFPGLPGP] (H-PGQRGE[Cit]GFPGLPGP-OH), the IC50 at HLA-DRB1*04:01 (setting [3]) was over 40000 nM; on HLA-DRB1*01:01 (setting [4]), 10500 nM.
Take EIATYRKLLEGEESR [Vimentin 396 WT]: the IC50 on HLA-DRB1*04:01 (setting [5]) was determined as 3520 nM; on HLA-DRB1*01:01 (setting [6]) it was 52 nM.
Turning to `CC(C)C[C@H](NC(=O)[C@H](C)NC(=O)[C@@H](NC(=O)[C@H](Cc1ccc(O)cc1)NC(=O)[C@@H](NC(=O)[C@H](Cc1ccccc1)NC(=O)[C@H](CCCNC(N)=O)NC(=O)[C@H](CO)NC(=O)[C@@H](N)CC(N)=O)[C@@H](C)O)[C@@H](C)O)C(=O)N[C@@H](CCCCN)C(=O)N[C@@H](CC(=O)O)C(=O)NCC(=O)N[C@@H](CS)C(=O)N[C@H](C(=O)N[C@@H](CCCCN)C(=O)O)[C@@H](C)O` [NSXFTYTALKDGCTK] (H-NS[Cit]FTYTALKDGCTK-OH), the IC50 on HLA-DRB1*04:01 (setting [7]) is 12400 nM; at HLA-DRB1*04:01 (setting [8]), 4170 nM; on HLA-DRB1*01:01 (setting [9]) it was 44 nM; at HLA-DRB1*01:01 (setting [10]), 15 nM.
The matching figures for `CC[C@H](C)[C@H](NC(=O)[C@@H](NC(=O)[C@@H](NC(=O)[C@H](CCCCN)NC(=O)CN)[C@@H](C)O)C(C)C)C(=O)N[C@@H](CCC(=O)O)C(=O)N[C@@H](Cc1ccc(O)cc1)C(=O)N[C@@H](CCCNC(=N)N)C(=O)N[C@@H](CO)C(=O)N[C@@H](CCC(N)=O)C(=O)N[C@@H](CCCCN)C(=O)N[C@H](C(=O)N[C@@H](CO)C(=O)N[C@@H](CCCNC(N)=O)C(=O)N[C@@H](CC(C)C)C(=O)O)[C@@H](C)O` [GKTVIEYRSQKTSXL] (H-GKTVIEYRSQKTS[Cit]L-OH): 138 nM, 646 nM, 9.3 nM and 29 nM.
Regarding `CC[C@H](C)[C@H](N)C(=O)N[C@@H](CCCNC(=N)N)C(=O)N[C@@H](C)C(=O)N[C@@H](CCC(=O)O)C(=O)NCC(=O)N[C@@H](CC(N)=O)C(=O)N[C@@H](CO)C(=O)N[C@@H](CCCNC(N)=O)C(=O)N[C@@H](Cc1ccccc1)C(=O)N[C@H](C(=O)N[C@@H](Cc1ccc(O)cc1)C(=O)N[C@H](C(=O)N[C@@H](C)C(=O)N[C@@H](CC(C)C)C(=O)N[C@@H](CCCCN)C(=O)O)[C@@H](C)O)[C@@H](C)O` [IRAEGNSXFTYTALK] (H-IRAEGNS[Cit]FTYTALK-OH), the IC50 on HLA-DRB1*04:01 (setting [7]) is 849 nM; at HLA-DRB1*01:01 (setting [9]), 0.6 nM; at HLA-DRB1*01:01 (setting [10]), 1.3 nM.
For the compound `CC[C@H](C)[C@H](NC(=O)CNC(=O)[C@H](CCCNC(N)=O)NC(=O)[C@H](CCC(N)=O)NC(=O)CNC(=O)[C@H](C)NC(=O)[C@@H](N)CC(C)C)C(=O)N[C@H](C(=O)NCC(=O)N[C@@H](CC(C)C)C(=O)N1CCC[C@H]1C(=O)NCC(=O)N[C@@H](CCC(N)=O)C(=O)N[C@@H](CCCNC(=N)N)C(=O)NCC(=O)O)C(C)C` [LAGQXGIVGLPGQRG] (H-LAGQ[Cit]GIVGLPGQRG-OH), the IC50 at HLA-DRB1*04:01 (setting [3]) came out at 10500 nM; on HLA-DRB1*01:01 (setting [4]), 13 nM.
In the same order, the values of `CC(C)C[C@H](NC(=O)[C@H](CC(N)=O)NC(=O)[C@@H](N)[C@@H](C)O)C(=O)N[C@@H](CC(=O)O)C(=O)N[C@@H](CO)C(=O)N[C@@H](CC(C)C)C(=O)N1CCC[C@H]1C(=O)N[C@@H](CC(C)C)C(=O)N[C@H](C(=O)N[C@@H](CC(=O)O)C(=O)N[C@H](C(=O)N[C@@H](Cc1c[nH]cn1)C(=O)N[C@@H](CO)C(=O)N[C@@H](CCCCN)C(=O)N[C@@H](CCCNC(N)=O)C(=O)O)[C@@H](C)O)C(C)C` [TNLDSLPLVDTHSKX] (H-TNLDSLPLVDTHSK[Cit]-OH) are over 40000 nM and 772 nM.
Take ENGSPGPMGPRGLPG [Collagen 316 WT]: the IC50 at HLA-DRB1*04:01 (setting [5]) and on HLA-DRB1*01:01 (setting [6]) was over 40000 nM throughout.
Turning to `CC(C)C[C@H](NC(=O)[C@H](C)NC(=O)[C@H](CC(=O)O)NC(=O)[C@H](CC(N)=O)NC(=O)[C@H](CC(N)=O)NC(=O)[C@H](CCCNC(N)=O)NC(=O)[C@H](CC(N)=O)NC(=O)[C@H](C)NC(=O)[C@H](C)NC(=O)[C@H](CCC(=O)O)NC(=O)[C@H](CO)NC(=O)[C@H](CC(C)C)NC(=O)[C@H](CC(=O)O)NC(=O)[C@H](C)N)C(=O)N[C@@H](CCCNC(=N)N)C(=O)O` [ADLSEAANXNNDALR] (H-ADLSEAAN[Cit]NNDALR-OH), the results for the IC50 on HLA-DRB1*04:01 (setting [1]) and at HLA-DRB1*01:01 (setting [2]) were 22200 nM and 7340 nM, respectively.

Values taken from PMC5421785, “Citrullination only infrequently impacts peptide binding to HLA class II MHC” (PLoS ONE, 2017).
